From publication PMC7405012, “Detection of Chaetomium globosum, Ch. cochliodes and Ch. rectangulare during the Diversity Tracking of Mycotoxin-Producing Chaetomium-like Isolates Obtained in Buildings in Finland” (Toxins, 2020)
Values after ≈ are worked out from the molar mass of the structure shown.

Experiments:
boar spermatozoa = assay: cells; format: cell-based; settings: Spermatozoa, 20 min; motile boar sperm, 20 min, 37 °C; read-out: EC50 BSMIM Boar Sperm 20 min
resting boar spermatozoa [1] = assay: Plasma membrane integrity of resting spermatozoa (SMIDR), calcein-AM + PI; format: cell-based; settings: Spermatozoa, 48 h; resting boar sperm, 24 °C, 2 days; read-out: EC50 Lethal Toxicity SMIDR 2 days
Procedure: (§1) The long-term effects of exposure to chaetoglobosin A and to the chaetoglobosin-containing extracts of the Ch. globosum MTAV35 and MTAV37 strains were measured in resting sperm cells exposed at 24 °C for two days. Three criteria were assessed: (1) the motility inhibition of resting boar spermatozoa (BSMIR); (2) the change in mitochondrial membrane potential (ΔΨ) observed using the potentiometric dye JC-1; and (3) the plasma membrane integrity (SMIDR) observed using the viability stain calcein-AM + propidium iodide (PI). […] By contrast, the EC50 concentrations in the SMIDR assays, which measured the lethal damages in plasma membrane after incubation for two days, were >50 times higher (Figure 5 and Table 3).
(§2) The boar sperm cells exposed for 2 days to commercial chaetoglobosin A and the crude extract of MTAV35 and MTAV37 were double-stained with the viability stains PI + calcein–AM, the SMIDR assay, as described earlier. The staining protocol was as follows: 200 μL of extended boar semen containing 27 × 10^6 sperm cells mL^−1 was mixed with 200 μL PBS containing 3 μg mL^−1 calcein-AM and 10 μg mL^−1 PI. The ΔΨm assay monitored the mitochondrial membrane potential changes (ΔΨm) by staining with the lipophilic potentiometric dye JC-1 as described by Mikkola et al. (2015). For the staining with JC-1 (35 µg mL^−1), 200 µL of the sperm cells were shaken and incubated at 37 °C for 5 min. After staining, the cells exposed in the SMIDR and the ΔΨm assays were inspected with fluorescence microscope using 400× magnification (Nikon Eclipse E600, Nikon Corporation, Tokyo Japan) with filters BP 450–490 nm/LP 520. The calcein–AM-stained cells with intact plasma membranes produced green fluorescence, whereas the PI-dyed cells with damaged plasma membranes produced red fluorescence. In JC-1 stained sperm cells, mitochondria with high membrane potential emitted yellow fluorescence, whereas depolarized mitochondria fluoresced green.
(§3) The EC50 concentration in these microscopic assays was defined as the lowest concentration where the ratio of cells similar to those in the solvent control was less than 50%. This EC50 fitted between EC90 and EC10 observed in the microscope calculating ca. 100–120 sperm cells from three microscopic fields. The maximal difference between four parallel tests in each of the two methods was one dilution step. The assays were calibrated with triclosan.

resting boar spermatozoa [2] = assay: Motility inhibition of resting boar spermatozoa (BSMIR); format: cell-based; settings: resting boar sperm, 24 °C, 2 days
Procedure: as §1, with “Three” for “The long-term effects of exposure to chaetoglobosin A and to the chaetoglobosin-containing extracts of the Ch. globosum MTAV35 and MTAV37 strains were measured in resting sperm cells exposed at 24 °C for two days. Three”
The procedure for the BSMIR assay measuring sublethal toxicity as motility inhibition, i.e., inability to respond to induction of motility in resting sperm cells is described below: The ethanol solutions (0.5–10 μL) were dispensed in 2000 μL of extended boar semen (Figen Ltd., Tuomikylä, Finland, density of 27 × 10^6 sperms mL^−1) incubated at 24 °C, and motility of the sperms was inspected in the phase-contrast microscope (400× magnification) with a heated stage, (Olympus CKX41, Tokyo, Japan; magnification 400×) and an image recording software (Cellsense® standard version 11.0.06, Olympus Soft Imaging Solutions GmbH, Münster, Germany, 2012) as described previously. […] The EC50 was calculated from the equation of the straight line between EC50-40 and EC80-90: Y = −ΔY/ΔX × X + C where Y is the motility closest to 50% of the motility of the solvent control, X is the EC50 concentration and C is a constant between 100% and 60%. All tests were run in triplicates and differences between replicate tests were within one dilution step (2-fold). The sperm assays were calibrated with triclosan and valinomycin.

resting boar spermatozoa [3] = assay: Mitochondrial membrane potential (ΔΨm) assay with JC-1 in resting spermatozoa; format: cell-based
Procedure: as §1, with “Three” for “The long-term effects of exposure to chaetoglobosin A and to the chaetoglobosin-containing extracts of the Ch. globosum MTAV35 and MTAV37 strains were measured in resting sperm cells exposed at 24 °C for two days. Three”
as §2, §3

resting PK-15 cells = assay: Mitochondrial damage test: accelerated glucose consumption and extracellular acidosis; format: cell-based, porcine
Procedure: The mitochondria were depolarized in sperm cells exposed to sublethal concentrations of chaetoglobosin A (Figure 5) and to the chaetoglobosin-containing extracts (Table 3). This observation aroused the suspicion regarding mitochondrial toxicity. The mitochondrial toxicity of the extracts containing chaetoglobosin was assessed by measuring the accelerated glucose consumption in resting PK-15 cells. […] By contrast, the positive controls for mitochondrial toxicity—enniatin B, moniliformin and valinomycin at sublethal concentrations of 1.5, 4 and 5 ng mL^−1, respectively—promoted the acceleration of glycolysis.
The test for mitochondrial damage as indicated by accelerated glucose consumption and extracellular acidosis was described earlier. The PK-15 cells were grown in 8-well flat-bottom chamber glass slides, seeded to a density of 4 × 10^4 cells mL^−1, in the respective medium for 48 h. The twofold serially diluted test substances or the vehicle only was dispensed into the wells. The glucose content of the wells was measured by using a glucose meter (Precision Xceed; Abbott Diabetes Care Ltd., Berkshire, United Kingdom). In wells that received nothing or the vehicle only, the glucose concentration decreased from an initial concentration (0 h) of 12 to 6 mM (24 h), but the pH remained as pH of 7.2. A glucose concentration after 24 h of ≤3 mM indicated excessive glucose consumption. Prior to the measurement of the pH, the chamber slides were transferred into ambient air for 1 h to allow CO2 to evaporate. A pH drop of 0.5 units in the toxin-exposed well compared to the vehicle only was considered proof of acidosis. Mitochondrial depolarization (ΔΨm assay) was read by a fluorescence microscope after 26 h of exposure to the toxicants from the monolayers double stained with the membrane potential-responsive fluorogenic dye JC-1 and with propidium iodide to assess the relaxing of the plasma membrane permeability barrier, similar to what was reported previously for sperm cells (27).

For `C/C1=C\[C@@H](C)C/C=C/[C@H]2[C@@H]3O[C@]3(C)[C@@H](C)[C@H]3[C@H](Cc4c[nH]c5ccccc45)NC(=O)[C@]32C(=O)/C=C/C(=O)[C@@H]1O` [Chaetoglobosin A, chaetoglobosin A], the EC50 (boar spermatozoa) was 1 µg/mL (≈ 1.89 µM), the CC50 (resting boar spermatozoa [1]) was greater than 20 µg/mL and the “EC50 Sublethal Toxicity BSMIR 2 days” value (resting boar spermatozoa [2]) was 1 µg/mL (≈ 1.89 µM). For the same molecule, the EC50 (resting boar spermatozoa [3]; Spermatozoa, 48 h, read-out: EC50 Sublethal Toxicity Depletion of ΔΨm 2 days, resting boar sperm, JC-1, 2 days) was 3 to 4 µg/mL (≈ 5.67 to 7.57 µM), the “EC50 Sublethal Toxicity Depletion of ΔΨm 2 days” value (resting boar spermatozoa [3]; resting boar sperm, JC-1, 2 days) was 2 µg/mL and the “EC50 Sublethal Toxicity Acceleration of glycolysis 1 day” value (resting PK-15 cells; PK-15, 1 day) was “None”. The “EC50 Sublethal Toxicity Acidosis 2 days” value (resting PK-15 cells; PK-15, 2 days) was “None”.
